The molecules below were run against T1, SHP2 (Homo sapiens, UniProt Q06124) (assay: Phosphatase Assay (Single Dose Inhibition)). Conditions: compound at 0.02 μM (20nM); DiFMUP substrate 12 μM; SHP2 0.5 nM activated with dPEG8 peptide; DMSO control set to 100%; triplicate.
T1 sequence (Q06124 1-593): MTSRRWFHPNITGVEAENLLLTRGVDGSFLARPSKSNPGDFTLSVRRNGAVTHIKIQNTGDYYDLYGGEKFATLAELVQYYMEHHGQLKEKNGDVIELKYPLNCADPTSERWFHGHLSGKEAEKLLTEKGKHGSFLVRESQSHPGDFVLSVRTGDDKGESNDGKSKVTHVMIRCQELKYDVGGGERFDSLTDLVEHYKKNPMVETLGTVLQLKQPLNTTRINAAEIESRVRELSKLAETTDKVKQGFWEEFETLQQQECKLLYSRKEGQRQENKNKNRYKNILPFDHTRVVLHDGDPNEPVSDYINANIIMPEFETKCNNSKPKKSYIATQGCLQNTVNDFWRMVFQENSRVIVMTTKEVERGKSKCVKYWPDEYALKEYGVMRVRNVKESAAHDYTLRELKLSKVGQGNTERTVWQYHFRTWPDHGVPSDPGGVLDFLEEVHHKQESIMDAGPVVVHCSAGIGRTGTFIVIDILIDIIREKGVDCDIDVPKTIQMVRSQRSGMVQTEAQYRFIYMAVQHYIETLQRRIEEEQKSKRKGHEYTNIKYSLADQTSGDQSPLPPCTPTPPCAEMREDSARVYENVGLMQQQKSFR
Format: biochemical
Protocol: Phosphatase Assay (Single Dose Inhibition) Assay Protocol: For single dose inhibition assays using 6,8-difluoro-4-methylumbelliferyl phosphate (DiFMUP) as a substrate, SHP2 samples (diluted to 0.5 nM in reaction buffer) were incubated with dPEG8 peptide for 30 min in reaction buffer[60 mM 3,3-dimethyl glutarate (pH7.2), 75 mM NaCl, 75 mM KCl, and 1 mM EDTA, 0.05% Tween 20, 2mM dithiothreitol (DTT) ] to active the PTP. DMSO [0.5% (v/v)] or compounds (20nM) were added to the mixture and incubated for 30 min at room temperature. Reactions were initiated by the addition of DiFMUP (12 μM; total reaction volume of 100 μL), and the fluorescence (excitation at 340 nm, emission at 450 nm) of the resulting solutions was measured on a 2104-0020 EnVision Xcite Multilabel Reader (PerkinElmer) after 30min. The experiment is carried out in triplicate. The value for the control sample (DMSO) was set to 100%, and the values for the compound-treated samples were expressed as activity relative to the control sample.
`COc1nccc(Sc2cnc(N3CCC4(CC3)Cc3ccc(SC)cc3[C@H]4N)cn2)c1Cl` [Example 19, (S)-1′-(5-((3-chloro-2-methoxypyridin-4-yl)thio)pyrazin-2-yl)-6-(methylthio)-1,3-dihydrospiro[indene-2,4′-piperidin]-1-amine] was tested, and the inhibition at 0.02 µM was 61%. `Cc1nc(N2CCC3(CC2)Cc2ncccc2[C@H]3N)c(O)nc1-c1cccc(Cl)c1Cl` [Example 28, (S)-3-(5-amino-5,7-dihydrospiro[cyclopenta[b]pyridine-6,4′-piperidin]-1′-yl)-6-(2,3-dichlorophenyl)-5-methylpyrazin-2-ol] was tested, and the inhibition at 0.02 µM was 74%. `NC(=O)c1nc(Sc2cccc(Cl)c2Cl)c(N)nc1N1CCC2(CC1)Cc1ncccc1[C@H]2N` [Example 31, (S)-5-amino-3-(5-amino-5,7-dihydrospiro[cyclopenta[b]pyridine-6,4′-piperidin]-1′-yl)-6-((2,3-dichlorophenyl)thio)pyrazine-2-carboxamide] was tested, and the inhibition at 0.02 µM was 82%. `Cc1nc(N2CCC3(CC2)Cc2ncccc2[C@H]3N)cnc1-c1cccc(Cl)c1Cl` [Example 2, (S)-1′-(5-(2,3-dichlorophenyl)-6-methylpyrazin-2-yl)-5,7-dihydrospiro[cyclopenta[b]pyridine-6,4′-piperidin]-5-amine] showed an inhibition at 0.02 µM of 80%. In the case of `Cc1cccc(-c2ncc(N3CCC4(CC3)Cc3ccc(N)cc3[C@H]4N)nc2N)c1Cl` [Example 47, (S)-1′-(6-amino-5-(2-chloro-3-methylphenyl)pyrazin-2-yl)-1,3-dihydrospiro[indene-2,4′-piperidine]-1,6-diamine], the inhibition at 0.02 µM was 56%. `Cc1cccc(-c2ncc(N3CCC4(CC3)Cc3ccc(Br)cc3[C@H]4N)nc2N)c1Cl` [Example 45, (S)-1′-(6-amino-5-(2-chloro-3-methylphenyl)pyrazin-2-yl)-6-bromo-1,3-dihydrospiro[indene-2,4′-piperidin]-1-amine] gave an inhibition at 0.02 µM of 78%. `Cc1nc(N2CCC3(CC2)Cc2ccccc2[C@H]3N)c(C(N)=O)nc1-c1cccc(Cl)c1Cl` [Example 4, (S)-3-(1-amino-1,3-dihydrospiro[indene-2,4′-piperidin]-1′-yl)-6-(2,3-dichlorophenyl)-5-methylpyrazine-2-carboxamide] gave an inhibition at 0.02 µM of 89%. Work on `Cn1c(N2CCC3(CC2)Cc2ccccc2[C@H]3N)nc(N)c(Sc2ccnc(N)c2Cl)c1=O` [Example 40] yielded an inhibition at 0.02 µM of 68%. For “ethyl (S)-3-(1-amino-1,3-dihydrospiro[indene-2,4′-piperidin]-1′-yl)-6-(2,3-dichlorophenyl)-5--2-carboxylate [Example 1]”, the “SHP2 inhibition(%)” value was 82%. `Nc1nc(N2CCC3(CC2)Cc2ncccc2[C@H]3N)ccc1Sc1ccnc(N)c1Cl` [Example 32, (S)-1′-(6-amino-5-((2-amino-3-chloropyridin-4-yl)thio)pyridin-2-yl)-5,7-dihydrospiro[cyclopenta[b]pyridine-6,4′-piperidin]-5-amine] was tested, and the inhibition at 0.02 µM was 75%. `CC(C)Nc1nccc(Sc2cnc(N3CCC4(CC3)Cc3ccc(S(C)(=O)=O)cc3[C@H]4N)cn2)c1Cl` [Example 21, (S)-1′-(5-((3-chloro-2-(isopropylamino)pyridin-4-yl)thio)pyrazin-2-yl)-6-(methylsulfonyl)-1,3-dihydrospiro[indene-2,4′-piperidin]-1-amine] gave an inhibition at 0.02 µM of 68%. For `Cn1c(N2CCC3(CC2)Cc2ccc(F)cc2[C@H]3N)nc2[nH]nc(-c3cccc(Cl)c3Cl)c2c1=O` [Example 37, (S)-6-(1-amino-6-fluoro-1,3-dihydrospiro[indene-2,4′-piperidin]-1′-yl)-3-(2,3-dichlorophenyl)-5-methyl-1,5-dihydro-4H-pyrazolo[3,4-d]pyrimidin-4-one], the inhibition at 0.02 µM was 68%. `N[C@@H]1c2ccccc2CC12CCN(c1cnc3c(N4CCCc5ncccc54)n[nH]c3n1)CC2` [Example 50, (S)-1′-(3-(3,4-dihydro-1,5-naphthyridin-1(2H)-yl)-1H-pyrazolo[3,4-b]pyrazin-6-yl)-1,3-dihydrospiro[indene-2,4′-piperidin]-1-amine] gave an inhibition at 0.02 µM of 86%.

Source: patent publication US20210393623A1 (Jacobio Pharmaceuticals Co., Ltd., priority 2018, published 2021)
